Laboratory results from patent US12102685B2, “Immodulator peptides covalently modified with small molecules” (priority 2020, dated 2024).
Marks after values point to notes of the source that are not given here. Peptide text beside a SMILES is read from it.

Legend:
[1] = Alexa488-SA-labelled IM1-IM6 binding to metal-charged NTA-coated plate (x2B d); settings: no peptide background = 1.0
[2] = molecular target: T1, AA111-228 DNA-binding domain of RXR-alpha (RXRa-DBD) (Homo sapiens, UniProt P19793); test: Binding to RXRa-DBD (x3A); settings: 1 ug/well RXRa-DBD, 800 ng/well SA488-labelled peptide; background subtracted
T1 construct: purchased Abcam, Cambridge, MA
T1 sequence (P19793 111-228): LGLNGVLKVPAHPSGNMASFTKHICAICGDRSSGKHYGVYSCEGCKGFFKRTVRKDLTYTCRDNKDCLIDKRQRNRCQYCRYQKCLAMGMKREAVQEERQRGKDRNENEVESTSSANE

[3] = Binding to heparin-agarose spin column (x3D); settings: 1 ug SA488-labelled peptide
[4] = FITC-PI(4,5)P2 binding to plate-bound peptide with calcium (x9A)
Experimental: (§1) Immodulator peptides IM1, IM3 and IM5 (400 ng/well) in PBS were bound to streptavidin-coated 96-well plates at room temperature for 60 minutes, in the presence or absence of 500 uM calcium chloride. Each well also received 200 ng cold PPI plus 10 ng FITC-labeled PI(4,5)P2 or PI(4)P1. The tables below show the relative fluorescence (with/without calcium background) expressed as a percentage of the highest binder, FITC-PI(4,5)P2+cold PI(3,5)P2, which was 2,496 fluorescence units. Background binding without calcium was, in all cases, 200-300 fluorescence units.

[5] = FITC-PI(4)P1 binding to plate-bound peptide with calcium (x9A)
Experimental: as §1

[6] = Binding to Echelon PPI Arrays (x9B); parameters: key: 0=no binding; 1=low binding; 2=medium binding; 3=high binding; settings: 100 pmol PPI spot, colorimetric readout
Excerpt: Binding of immodulator peptides to Echelon PPI Arrays. PPI arrays were purchased from Echelon Biosciences (Sal Lake City, UT) and used according to the manufacturer's recommendations. Colorimetric readout from each 100 pmol PPI spot in the array is expressed as 0=no binding, 1=low binding, 2=medium binding and 3=high binding. […] In addition, IM3 and IM5 show slight binding to PI(3,4,5)P3.

- fluorescence ([1]; Calcium): 23.4 ± 0.8**
- fluorescence ([1]; Copper): 5.6 ± 0.1**
- fluorescence ([1]; Ferrous iron, 400 ng/well): 20.5 ± 1.5**
- fluorescence ([1]; Zinc): 23.6 ± 0.1**
- fluorescence [2]: 6,802±336
- Percent Flowthrough [3]: 3.6%
- Percent retained [3]: 96.4%
- relative fluorescence, FITC-PI(4,5)P2 bound ([4]; cold PPI: 3,4,5-P3, calcium): 0.2 percentage of the highest binder
- relative fluorescence, FITC-PI(4,5)P2 bound ([4]; cold PPI: 3,4-P2, calcium): 12.3 percentage of the highest binder
- relative fluorescence, FITC-PI(4,5)P2 bound ([4]; cold PPI: 3,5-P2, calcium): 16.9 percentage of the highest binder
- relative fluorescence, FITC-PI(4,5)P2 bound ([4]; cold PPI: 3-P1, calcium): 0.3 percentage of the highest binder
- relative fluorescence, FITC-PI(4,5)P2 bound ([4]; cold PPI: 4,5-P2, calcium): 7.6 percentage of the highest binder
- relative fluorescence, FITC-PI(4,5)P2 bound ([4]; cold PPI: 4-P1, calcium): 2.3 percentage of the highest binder
- relative fluorescence, FITC-PI(4,5)P2 bound ([4]; cold PPI: 5-P1, calcium): 2.7 percentage of the highest binder
- relative fluorescence, FITC-PI(4,5)P2 bound ([4]; cold PPI: None, 500 uM calcium chloride): 2.6 percentage of the highest binder
- relative fluorescence, FITC-PI(4)P1 bound ([5]; cold PPI: 3,4,5-P3): 1.2 percentage of the highest binder
- relative fluorescence, FITC-PI(4)P1 bound ([5]; cold PPI: 3,4-P2): 1.7 percentage of the highest binder
- relative fluorescence, FITC-PI(4)P1 bound ([5]; cold PPI: 3,5-P2): 1.3 percentage of the highest binder
- relative fluorescence, FITC-PI(4)P1 bound ([5]; cold PPI: 3-P1): 0.9 percentage of the highest binder
- relative fluorescence, FITC-PI(4)P1 bound ([5]; cold PPI: 4,5-P2): 1.8 percentage of the highest binder
- relative fluorescence, FITC-PI(4)P1 bound ([5]; cold PPI: 4-P1): 0.8 percentage of the highest binder
- relative fluorescence, FITC-PI(4)P1 bound ([5]; cold PPI: 5-P1): 0.4 percentage of the highest binder
- relative fluorescence, FITC-PI(4)P1 bound ([5]; cold PPI: None): 2.1 percentage of the highest binder
- binding to PI spot [6]: 0
- binding to PI(3,4,5)P3 spot [6]: 1
- binding to PI(4)P1 spot [6]: 2
- binding to PI(4,5)P2 spot [6]: 3
Structure (SMILES): CC[C@H](C)[C@H](NC(=O)CNC(=O)[C@H](CCCNC(=N)N)NC(=O)[C@H](CCCCN)NC(=O)[C@H](CCCNC(=N)N)NC(=O)CNC(=O)[C@H](CCCNC(=N)N)NC(=O)[C@H](CO)NC(=O)[C@@H]1CCCN1C(=O)[C@H](CCCCN)NC(=O)[C@H](CS)NC(=O)[C@H](CCC(N)=O)NC(=O)[C@H](CCCCN)NC(=O)[C@H](CCCNC(=N)N)NC(=O)[C@H](CCCCN)NC(=O)[C@H](Cc1ccc(O)cc1)NC(=O)[C@H](Cc1ccccc1)NC(=O)CNC(=O)[C@H](CCCCN)NC(=O)[C@@H](N)CCCNC(=N)N)C(=O)N[C@@H](CS)C(=O)N[C@@H](Cc1c[nH]c2ccccc12)C(=O)O [IM5] (H-RKGFYKRKQCKPSRGRKRGICW-OH; N-terminus and C-terminus assumed)
